Assay results from US20180113115A1, “SCREENING ASSAYS BASED ON MAG AND/OR ABHD6 FOR SELECTING INSULIN SECRETION PROMOTING AGENT” (VAL-CHUM, LIMITED PARTNERSHIP, priority 2010, published 2018).

What was measured:
INS 832/13 cells [1] = assay: Insulin secretion measurement in INS 832/13 cells (static incubation); format: cell-based
Procedure: (§1) INS 832/13 cells (Hohmeir et al.) were cultured at 37° C. in a humidified atmosphere containing 5% CO2 in RPMI 1640 with sodium bicarbonate, supplemented with 10% (v/v) fetal calf serum (Wisent), 10 mM HEPES, pH 7.4, 2 mM L-glutamine, 1 mM sodium pyruvate and 50 μM β-mercaptoethanol (complete RPMI). Cells were grown to 80% confluence. Media were changed to RPMI 1640 containing 3 mM glucose supplemented as the complete RPMI 24 h prior to the experiments. Insulin secretion incubations were conducted in Krebs-Ringer bicarbonate buffer containing 10 mM HEPES, pH 7.4 (KRBH).
INS 832/13 cells were washed in KRBH containing 1 mM glucose and 0.5% defatted BSA (KRBH 1G/0.5% BSA) and pre-incubated for 45 min in KRBH 1G/0.5% BSA in presence of pharmacological agents (at indicated concentrations) or vehicle (DMSO). […] When examining the effect of 2-AG, it was added to cells at 0 to 1 μM concentration at 2 mM and 10 mM glucose. Insulin secretion from INS 832/13 cells was measured from either 45-min or 2-h static incubations in KRBH containing various glucose concentrations, 0.5% defatted BSA and pharmacological agents or vehicle, with or without 35 mM KCl or 0.3 mM palmitate, as specified.

rat intact islets = assay: GSIS in isolated intact rat islets; format: cell-based; settings: 20 μM WWL70 + 20 μM AMG9810
From the text: (§2) All procedures were approved by the Institutional Committee for the Protection of Animals at the Centre Hospitalier de l'Université de Montreal Research Center. Wistar rats or […] mice or CD1 mice (all male) from Charles River (St-Constant, QC, Canada) were anaesthetized with Somnotol® (MTC Pharmaceuticals, Canada) and sacrificed by exsanguination. Pancreatic islets were isolated by collagenase (type XI from Sigma) digestion of total pancreas (Gotoh et al.), followed by separation (centrifugation at 1040×g) on a Histopaque™ 1119, 1077 (Sigma) gradient. Isolated islets were handpicked and cultured overnight in a petri dish at 37° C. in a humidified atmosphere containing 5% CO2 in RPMI 1640 with sodium bicarbonate, supplemented with 10% fetal calf serum, 10 mM HEPES pH 7.4, 2 mM L-glutamine, 1 mM sodium pyruvate, 100 U/mL penicillin and 100 μg/mL streptomycin.
(§3) For insulin secretion from rat, mouse or human islets, batches of 10 islets were washed in KRBH containing 2.8 mM glucose and 0.5% defatted BSA, and pre-incubated for 45 min in KRBH containing 2.8 mM glucose, 0.5% defatted BSA and different pharmacological agents (at indicated concentrations) or DMSO. […] Total insulin contents and media insulin concentrations were determined by radioimmunoassay using human insulin standards (Linco Research, Mo.).

[2] = test system: dispersed rat islet cells; assay: GSIS in dispersed rat islet cells; format: cell-based; settings: 20 μM WWL70, 20 μM AMG9810 or combination
From the text: as §2, with “streptomycin. […]” for “streptomycin.”
as §3

[3] = test system: isolated CD1 mouse islets; assay: GSIS in isolated CD1 mouse islets; format: cell-based
From the text: as §2
(§4) For insulin secretion from rat, mouse or human islets, batches of 10 islets were washed in KRBH containing 2.8 mM glucose and 0.5% defatted BSA, and pre-incubated for 45 min in KRBH containing 2.8 mM glucose, 0.5% defatted BSA and different pharmacological agents (at indicated concentrations) or DMSO. Islets were then incubated for either 45 min or 2 h in KRBH containing various glucose concentrations or 2.8 mM glucose plus 35 mM KCl, 0.5% defatted BSA in the presence or absence of drugs (at indicated concentrations) or vehicle (DMSO). At the end of the incubation, media were collected and insulin extracted from cells or islets in acid-ethanol (1.5% HCl, 75% ethanol). Total insulin contents and media insulin concentrations were determined by radioimmunoassay using human insulin standards (Linco Research, Mo.).

[4] = test system: isolated C57Bl6 mouse islets; assay: GSIS in isolated C57Bl6 mouse islets; format: cell-based
From the text: as §2, §4

human intact islets = assay: GSIS in human intact islets; format: cell-based; settings: one donor
Procedure: Human islets were obtained from the Human Islet Isolation Core of MDRC, following appropriate ethical guidelines. The donor was a […] without any known metabolic disease. Islets were hand-picked and cultured overnight before use. Both rodent and human islets were also treated with trypsin to disperse islet cells and then cultured overnight in RPMI complete medium. These overnight cultured dispersed islets cells were then used for examining the effect of various pharmacological agents.
as §4

INS 832/13 cells [5] = assay: Effect of lipase inhibitors on [U-14C]-glucose incorporation into lipids; format: cell-based; settings: 1 and 10 mM [U14C]-glucose, 50 μM orlistat
Procedure: as §1
INS 832/13 cells were incubated overnight at 11 mM [U-^14C]-glucose in RPMI medium in a CO2-incubator in order to pre-label all the lipids in the cells. Then the cells were washed in KRBH (1 mM [U-^14C]-glucose) and pre-incubated for 45 min in KRBH at 1 mM [U-^14C]-glucose to bring metabolism to basal level. After this, cells were further incubated for 2 h in KRBH at 1 and 10 mM [U-^14C]-glucose and the indicated inhibitors. […] Then the cells were washed rapidly and flash-frozen in liquid nitrogen and extracted for lipids. Lipids were separated by TLC and the associated radioactivity was quantified. Neutral lipids were separated on boric acid/silica gel-TLC, with two solvent systems, first petroleum ether: diethyl ether: acetic acid (70:30:1), followed by second solvent system up to half of the plates, chloroform: acetone: acetic acid (60:40:1). Phospholipids were separated with a solvent system, chloroform: methanol: water (65:25:4).

MAG lipase (MAGL) = settings: cited from earlier work
TRPV1-R = settings: in vivo; cited from earlier work
INS832/13 cells = assay: RNAi-knockdown of ABHD6, insulin secretion; format: cell-based; settings: siRNA transfection; for glucose-stimulated insulin secretion: 10 mM glucose
Procedure: INS 832/13 cells were plated at a density of 150 000 cells/well in a 12-well plate, in 1 ml complete RPMI medium, one day prior to RNAi transfection. On the next day, RNAi duplexes and lipofectamine-RNAimax™ were prepared separately. Then 24 pmol of each RNAi duplex was diluted in 100 μl Opti-MEM™ without serum and mixed gently. And at the same time, 2 μl of lipofectamine-RNAimax was diluted in 100 μl Opti-MEM without serum and mixed gently. Then the diluted RNAi duplex and RNAi-max reagents were mixed gently (200 μl volume) and incubated at room temperature for 20 min. This 200 μl mixture (which gives a final concentration of […] of RNAi), prepared separately for each well, was then added to the corresponding well with approximately 30% confluent INS cells. Following RNAi transfection, cells were incubated for 16 to 72 h. in a CO2 incubator at 37° C. Then the cells were starved by incubation in RPMI-1640 with 10% FBS and 1 mM glucose for 2 h. followed by washing one time with KRBH (containing 1 mM glucose and 0.5% BSA) and pre-incubation with the same KRBH for 45 min. Finally for following insulin secretion, cells were incubated in the KRBH buffer with 1 mM or 10 mM glucose for 2 h. The media and the cells were collected for insulin and protein assay as described above. The ABHD6-directed siRNAs and the control siRNAs were obtained from Ambion (Catalog #4390771; […]tt (ABHD6-6 sense or SEQ ID NO: 9), […]gt (ABHD6-6 anti-sense or SEQ ID NO: 10), […]tt (ABHD6-5 sense or SEQ ID NO: 11), […]at (ABHD6-5 anti-sense or SEQ ID NO: 12)). ABHD6-6 sense and antisense oligos are used in a similar fashion. Control siRNAs, which are non-targeting siRNAs with limited sequence similarity to known genes were obtained from Ambion (Catalog #AM4613 and AM4642) and were used to transfect the cells as described above. Additionally, non-treated cells and pBS (plasmid vector Bluescript) transfected cells were used as controls as well. Results of insulin secretion and ABHD6 expression in ABHD6-siRNA transfected cells were compared with different controls.

[6] = 20 μM WWL70 or 20 μM AMG9810 alone
[7] = 20 μM AMG9810, with 20 μM WWL70

## CC(C)(C)c1ccc(/C=C/C(=O)Nc2ccc3c(c2)OCCO3)cc1 [AMG9810]
INS 832/13 cells [1]; 10 μM WWL70, AMG9810 at 10 μM, 1, 5, 10 mM glucose
  WWL70-enhanced GSIS: completely antagonized the WWL70 stimulation
INS 832/13 cells [1]; 35 mM KCl, 1 mM glucose, 10 μM WWL70 or 10 μM AMG9810
  KCl-stimulated insulin secretion: Neither WWL70 nor AMG9810 had any effect
INS 832/13 cells [1]; 1, 5, 10 mM glucose, AMG9810 concentration series
  GSIS, AMG9810 alone: dose-dependently reduces GSIS
INS 832/13 cells [1]; Gln+Leu 5 mM each, 1 mM glucose, 10 μM WWL70 or 10 μM AMG9810
  insulin secretion stimulated by leucine+glutamine: inhibited
Rat intact islets
  WWL70-enhanced GSIS: antagonized
[2]
  GSIS: inhibition of GSIS
[3]; 20 μM WWL70 + 20 μM AMG9810
  WWL70-enhanced GSIS: antagonized
[3]; [6]
  GSIS: without significant effect on GSIS per se
[4]; [7]
  GSIS inhibition by AMG9810 (WWL70-augmented): inhibition of GSIS
[4]; 20 μM WWL70 or 20 μM AMG9810 alone, 2.8 and 11.1 mM glucose
  GSIS: without significant effect on GSIS per se
Human intact islets; [7]
  GSIS inhibition by AMG9810 (WWL70-augmented): inhibition of GSIS
Human intact islets; [6]
  GSIS: without significant effect on GSIS per se

## O=C(Oc1ccc([N+](=O)[O-])cc1)N1CCC(C(O)(c2ccc3c(c2)OCO3)c2ccc3c(c2)OCO3)CC1 [JZL184]
INS 832/13 cells [1]; increasing glucose (5 and 10 mM), 10 μM WWL70, 50 μM orlistat, 1 μM JZL184
  glucose-stimulated insulin secretion (GSIS): no effect
INS 832/13 cells [5]; 1 μM JZL184
  release of [U14C]-free fatty acids (FFA): no effect
INS 832/13 cells [5]; 10 μM WWL70, 1 μM JZL184
  glucose incorporation into 1-monoacylglycerol (1-MAG): elevated
  glucose incorporation into 2-monoacylglycerol (2-MAG): elevated
  glucose incorporation into diacylglycerol (DAG): no effect
  glucose incorporation into triglycerides (TG): no effect
MAG lipase (MAGL)
  effect on MAG lipase (MAGL): specifically inhibits MAGL

## C=C(C)[C@]12C[C@@H](C)[C@@]34O[C@](Cc5ccccc5)(O[C@@H]1[C@@H]3C=C(COC(=O)Cc1ccc(O)c(OC)c1)C[C@]1(O)C(=O)C(C)=C[C@@H]41)O2 [resiniferatoxin]
TRPV1-R
  plasma insulin levels: elevates plasma insulin levels

## ABHD6-siRNA5: annealed ABHD6-5 sense (SEQ ID NO: 11) and anti-sense (SEQ ID NO: 12) oligos, ABHD6-directed siRNA from Ambion (sense CAGUUUGUAGAAUGCCUUATT; antisense UAAGGCAUUCUACAAACUGAT; chemistry not given here)
INS832/13 cells; 1 mM glucose
  basal insulin secretion: increased
INS832/13 cells
  glucose-stimulated insulin secretion: significantly elevated

## ABHD6-siRNA6: annealed ABHD6-6 sense (SEQ ID NO: 9) and anti-sense (SEQ ID NO: 10) oligos, ABHD6-directed siRNA from Ambion (sense CGGAAAUUGUUUUUGGAAATT; antisense UUUCCAAAAACAAUUUCCGGT; chemistry not given here)
INS832/13 cells
  glucose-stimulated insulin secretion: significantly elevated
